# In publication PMC6142817, “New Urea Derivatives Are Effective Anti-senescence Compounds Acting Most Likely via a Cytokinin-Independent Mechanism” (Frontiers in Plant Science, 2018):
# Target: T1, Arabidopsis thaliana cytokinin oxidase/dehydrogenase 2 (AtCKX2) (Arabidopsis thaliana, UniProt Q9FUJ3)
# T1 construct: made in house; host or cells: Saccharomyces cerevisiae strain 23344c ura-, plasmid pYES2-AtCKX2; cell-free growth medium used directly
# T1 sequence (Q9FUJ3 23-501): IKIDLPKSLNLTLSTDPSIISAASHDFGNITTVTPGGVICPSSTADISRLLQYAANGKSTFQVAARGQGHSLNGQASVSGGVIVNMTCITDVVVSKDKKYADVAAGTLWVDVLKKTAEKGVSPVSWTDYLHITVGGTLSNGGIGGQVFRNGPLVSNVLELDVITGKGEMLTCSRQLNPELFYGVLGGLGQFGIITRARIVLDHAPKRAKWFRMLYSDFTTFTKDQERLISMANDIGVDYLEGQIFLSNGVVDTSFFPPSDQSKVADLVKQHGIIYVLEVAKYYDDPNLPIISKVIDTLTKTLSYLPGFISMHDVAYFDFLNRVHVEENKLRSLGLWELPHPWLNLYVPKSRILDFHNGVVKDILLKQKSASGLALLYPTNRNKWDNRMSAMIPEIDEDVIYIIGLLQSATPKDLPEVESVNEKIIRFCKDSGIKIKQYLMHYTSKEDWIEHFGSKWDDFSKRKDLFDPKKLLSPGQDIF
# Experiment: AtCKX2 inhibition assay (PMS/MTT)
# Format: biochemical
# Settings: PMS/MTT kinetic assay
# Experimental: The method based on the coupled redox reaction of phenazine methosulfate and 3-(4,5-dimethylthiazol-2-yl)-2,5-diphenyltetrazolium bromide resulting in the formation of a formazan dye was used to test the ability of the synthesized compounds to inhibit AtCKX2. The assay was performed as described previously (Frébort et al., [2002]). Cell-free growth medium of Saccharomyces cerevisiae strain 23344c ura- harboring the plasmid pYES2- AtCKX2 was used directly as a source of AtCKX2 (Frébortová et al., [2007]).
structure (smiles),measurement,value
"COCCNC(=O)Nc1cnns1 [ASES, 1-(2-methoxy-ethyl)-3-1,2,3-thiadiazol-5-yl-urea]",inhibition of AtCKX2,neither ASES nor any of the other synthesized substances inhibited AtCKX2
